Assay results from patent US20220009914A1, “Analogs of Nitrofuran Antibiotics to Combat Resistance” (The Trustees of Indiana University, priority 2020, published 2022).
Like-named read-outs stand apart in the source and are kept apart here.

Tests used:
[1] = tested on: Enterococcus faecium strain NCTC 7171 (ATCC #19434); test: bacterial proliferation assay, E. faecium; type: cell-based; settings: read-out: Bacterial Proliferation EC50 E. faecium
Procedure: (§1) All compounds were evaluated for inhibiting the proliferation of E. coli and each of the ESKAPE bacteria. Results presented represent the averages of EC50 values obtained from at least four replicates. Evaluating compounds for inhibition of bacterial cell proliferation.
(§2) Growth Media: E. coli were grown with LB medium and all ESKAPE bacteria were grown in Brain Heart Infusion (BHI) medium (Becton, Dickinson and Company), with all liquid cultures supplemented with 25 mg/L Ca^2+ and 12.5 mg/L Mg^2+ to mimic physiological free concentrations of these cations. A 10 mg/mL Ca^2+ stock solution was prepared by dissolving 1.84 g of CaCl2.2H2O in 50 mL of deionized water, and a 10 mg/mL Mg^2+ stock solution was prepared by dissolving 4.18 g of MgCl2.6H2O in 50 mL deionized water—filter sterilized using 0.2 μm cellulose-acetate filters. 2.5 mL of the sterile 10 mg/mL Ca^2+ stock and 1.25 mL of the sterile 10 mg/mL Mg^2+ stock solutions were added per 1 L of autoclaved LB or BHI media to obtain 25 mg/L Ca^2+ and 12.5 mg/L Mg^2+ ions, respectively.
(§3) General Assay Protocol: Stock bacterial cultures were streaked onto LB or BHI agar plates and grown overnight at 37° C. Fresh aliquots of cation supplemented media were inoculated with single bacterial colonies and the cultures were grown overnight at 37° C. with shaking (240 rpm). The following morning, cultures were diluted 10-fold into fresh media and grown at 37° C. until bacteria had reached mid-log phase growth (OD600˜0.4-0.6). The cultures were then diluted into fresh media to achieve final OD600 readings of 0.017. Aliquots of these diluted cultures (30 μL) were added to clear, flat-bottom 384-well polystyrene plates that were previously stamped with 0.5 μL of test compounds in 20 μL of media (yielding initial OD600=0.01 bacterial cultures). All compounds were tested in dose-response with concentration ranges during the proliferation assays from 100 μM to 46 nM (3-fold dilution series). A second set of baseline control plates were prepared analogously, but without any bacteria added, to correct for possible compound absorbance and/or precipitation. […] Plates were then read at 600 nm using a Molecular Devices SpectraMax Plus384 microplate reader. […] Results presented represent the averages of EC50 values obtained from at least four replicates.
(§4) Evaluating analogs for inhibiting the growth of E. coli and the ESKAPE bacteria. Analogs were initially tested for antibacterial efficacy against representative strains of antibiotic-sensitive E. coli and the ESKAPE bacteria. To determine compound efficacy, bacterial proliferation assays were carried out in liquid media culture supplemented with physiological concentrations of free calcium and magnesium cations. For these assays, bacterial cultures (OD600=0.01) were exposed to test compounds in 8-point, 3-fold dilution series (100 μM to 46 nM concentration range), in 384-well plates. After addition of compounds to cultures, the plates were sealed with Breathe-Easy gas permeable membranes and allowed to grow to mid-log phase (OD600˜0.4-0.6), whereupon final OD600 readings were taken to assess for bacterial growth and inhibition.

E. coli GroEL/ES = molecular target: T1, E. coli GroEL/ES (Escherichia coli, UniProt P0A6F5); test: GroEL/ES-mediated dMDH refolding assay in the presence of E. coli NfsB nitroreductase; type: biochemical
T1 construct: made in house; host or cells: GroEL in NEB 5-alpha E. coli; GroES in E. coli BL21 (DE3)
Procedure: Evaluating compounds for inhibition in the GroEL/ES-mediated dMDH refolding assay and native MDH activity counter-screen in the presence of E. coli NfsB nitroreductase. These assays were performed nearly identically to those mentioned above, but with a couple distinct modifications. For both assays, 10 μg/mL of the E. coli NfsB nitroreductase enzyme (Sigma product #N9284) was added to the initial GroEL/ES-dMDH solution. For the GroEL/ES-dMDH refolding assay, after stamping with compounds, 10 μL of a 2.4 mM NADH solution was added, followed by a 10 minute incubation period at 37° C. to bioactivate the nitrofuran analogs. The remainder of the assay was conducted as in our standard protocol where no NfsB nitroreductase was present. […] For the native MDH activity counter-screen in the presence of E. coli NfsB nitroreductase, the assay was performed as described above for the GroEL/ES-dMDH refolding assay with NfsB; however, compound addition to the assay plates was conducted after the EDTA quench step, followed by a 10 minute incubation period at 37° C. to bioactivate the nitrofuran analogs. […] Results presented represent the averages of IC50 values obtained from at least four replicates in each assay.
Evaluating analogs for inhibiting GroEL/ES-mediated substrate refolding functions in the presence of the E. coli NfsB type-1 nitroreductase. […] However, our standard GroEL/ES-mediated refolding assays and native substrate reporter counter-screens were conducted without nitroreductases present.

[2] = tested on: Pseudomonas aeruginosa strain NCTC 10332 (ATCC #10145); test: bacterial proliferation assay, P. aeruginosa; type: cell-based; settings: read-out: Bacterial Proliferation EC50 P. aeruginosa
Procedure: as §1, §2, §3, §4

native MDH = molecular target: T2, native MDH (Sus scrofa, UniProt P00346); test: native MDH activity counter-screen in the presence of E. coli NfsB nitroreductase; type: biochemical, pig
T2 sequence (P00346 25-338): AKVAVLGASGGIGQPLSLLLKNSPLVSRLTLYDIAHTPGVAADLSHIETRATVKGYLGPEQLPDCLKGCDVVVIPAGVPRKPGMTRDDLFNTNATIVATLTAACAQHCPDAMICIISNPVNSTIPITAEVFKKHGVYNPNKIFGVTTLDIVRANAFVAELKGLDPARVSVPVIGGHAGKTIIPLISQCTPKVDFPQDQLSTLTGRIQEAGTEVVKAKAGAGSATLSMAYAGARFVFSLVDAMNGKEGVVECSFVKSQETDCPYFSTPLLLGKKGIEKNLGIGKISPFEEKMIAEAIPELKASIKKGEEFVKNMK
Procedure: Evaluating compounds for inhibition in the GroEL/ES-mediated dMDH refolding assay and native MDH activity counter-screen in the presence of E. coli NfsB nitroreductase. These assays were performed nearly identically to those mentioned above, but with a couple distinct modifications. […] The remainder of the assay was conducted as in our standard protocol where no NfsB nitroreductase was present. […] Results presented represent the averages of IC50 values obtained from at least four replicates in each assay.

[3] = with E. coli NfsB nitroreductase, read-out: Native MDH Activity w/NfsB IC50

T1 sequence (P0A6F5 2-548): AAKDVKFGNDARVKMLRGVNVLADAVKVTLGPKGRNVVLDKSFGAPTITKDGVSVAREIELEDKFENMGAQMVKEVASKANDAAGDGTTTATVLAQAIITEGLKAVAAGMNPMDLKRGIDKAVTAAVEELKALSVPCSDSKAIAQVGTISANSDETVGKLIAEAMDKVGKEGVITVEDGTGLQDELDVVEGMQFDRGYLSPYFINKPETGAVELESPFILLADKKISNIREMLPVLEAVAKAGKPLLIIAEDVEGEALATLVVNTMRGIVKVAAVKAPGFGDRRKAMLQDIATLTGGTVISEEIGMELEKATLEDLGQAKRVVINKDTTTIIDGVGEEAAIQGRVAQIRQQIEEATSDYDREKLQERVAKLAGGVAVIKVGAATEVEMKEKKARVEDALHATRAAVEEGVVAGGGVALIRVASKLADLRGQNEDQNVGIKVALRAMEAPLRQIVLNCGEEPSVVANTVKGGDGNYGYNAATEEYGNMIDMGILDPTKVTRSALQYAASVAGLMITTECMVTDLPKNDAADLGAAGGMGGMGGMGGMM

Compound	EC50 [1]	IC50 (E. coli GroEL/ES)	EC50 [2]	IC50 (native MDH; [3])	GroEL/ES inhibition in words (E. coli GroEL/ES; in the presence of E. coli NfsB)	IC50 (E. coli GroEL/ES; with E. coli NfsB nitroreductase, read-out: NfsB-GroEL/ES-dMDH Refolding IC50)	IC50 (native MDH)
O=C(N/N=C/c1ccc(O)cc1)c1ccccc1 [Compound 36, N′-(4-hydroxybenzylidene)benzohydrazide]	> 100 µM	> 83 µM	> 100 µM	> 56 µM	–	–	–
CN(C)c1ccc(C(=O)N/N=C/c2ccc(O)c3ncccc23)cc1 [Compound 8, 4-(dimethylamino)-N′-((8-hydroxyquinolin-5-yl)methylene)benzohydrazide]	> 100 µM	25 µM	> 100 µM	> 56 µM	–	–	–
O=C(N/N=C/c1ccc(O)c2ncccc12)c1cccs1 [Compound 3, N′-((8-hydroxyquinolin-5-yl)methylene)thiophene-2-carbohydrazide]	> 100 µM	29 µM	> 100 µM	> 56 µM	–	–	–
COc1ccc(C(=O)N/N=C/c2ccc(O)cc2)cc1 [Compound 35, N′-(4-hydroxybenzylidene)-4-methoxybenzohydrazide]	> 100 µM	> 83 µM	> 100 µM	> 56 µM	–	–	–
O=C(N/N=C/c1ccc(O)c2ncccc12)c1ccncc1 [Compound 6, N′-((8-hydroxyquinolin-5-yl)methylene)isonicotinohydrazide]	> 100 µM	> 83 µM	> 100 µM	> 56 µM	–	–	–
CCOc1ccc(S(=O)(=O)Nc2ccc(C(=O)N/N=C/c3ccc([N+](=O)[O-])o3)cc2)cc1 [Compound 28, 4-ethoxy-N-(4-(2-((5-nitrofuran-2-yl)methylene)hydrazine-1-carbonyl)phenyl)benzenesulfonamide]	> 100 µM	39 µM	> 100 µM	> 56 µM	–	–	–
O=[N+]([O-])c1ccc(O)c2ncccc12 [Nitroxoline, reference compound]	18 µM	27 µM	99 µM	> 56 µM	–	–	–
O=C(N/N=C/c1cccc2ncccc12)c1ccccc1 [Compound 32, N′-(quinolin-5-ylmethylene)benzohydrazide]	> 100 µM	> 83 µM	> 100 µM	> 56 µM	–	–	–
O=C1CN(/N=C/c2ccc(O)c3ncccc23)C(=O)N1 [Compound 2, 1-(((8-hydroxyquinolin-5-yl)methylene)amino)imidazolidine-2,4-dione]	> 100 µM	> 83 µM	> 100 µM	> 56 µM	–	–	–
CCN(CC)S(=O)(=O)c1cccc(C(=O)N/N=C/c2ccc(O)c3ncccc23)c1 [Compound 12, N,N-diethyl-3-(2-((8-hydroxyquinolin-5-yl)methylene)hydrazine-1-carbonyl)benzenesulfonamide]	> 100 µM	21 µM	85 µM	> 56 µM	–	–	–
O=Cc1ccc([N+](=O)[O-])o1 [Compound 41, reference compound]	20 µM	> 83 µM	> 100 µM	> 56 µM	–	–	–
O=C(N/N=C/c1ccc(O)c2ncccc12)c1ccc(Cl)s1 [Compound 4, 5-chloro-N′-((8-hydroxyquinolin-5-yl)methylene)thiophene-2-carbohydrazide]	70 µM	4 µM	> 100 µM	> 56 µM	–	–	–
O=C(N/N=C/c1ccc(O)c2ccccc12)c1ccccc1 [Compound 30, N′-((4-hydroxynaphthalen-1-yl)methylene)benzohydrazide]	> 100 µM	> 83 µM	> 100 µM	> 56 µM	–	–	–
COc1ccc(C(=O)N/N=C/c2cccc3ncccc23)cc1 [Compound 31, 4-methoxy-N′-(quinolin-5-ylmethylene)benzohydrazide]	> 100 µM	> 83 µM	> 100 µM	> 56 µM	–	–	–
COc1ccc(C(=O)N/N=C/c2cccc3ccccc23)cc1 [Compound 33, 4-methoxy-N′-(naphthalen-1-ylmethylene)benzohydrazide]	> 100 µM	> 83 µM	> 100 µM	> 56 µM	–	–	–
O=C(N/N=C/c1ccccc1)c1ccccc1 [Compound 38, N′-benzylidenebenzohydrazide]	> 100 µM	> 83 µM	> 100 µM	> 56 µM	–	–	–
O=C(N/N=C/c1ccc([N+](=O)[O-])o1)c1cccc(Oc2ccccc2)c1 [Compound 24, N′-((5-nitrofuran-2-yl)methylene)-3-phenoxybenzohydrazide]	11 µM	2.8 µM	> 100 µM	> 56 µM	–	–	–
O=C(N/N=C/c1ccc(O)c2ncccc12)c1ccc(O)cc1 [Compound 7, 4-hydroxy-N′-((8-hydroxyquinolin-5-yl)methylene)benzohydrazide]	> 100 µM	16 µM	> 100 µM	> 56 µM	–	–	–
O=C(N/N=C/c1ccc([N+](=O)[O-])o1)c1cccc2ccccc12 [Compound 22, N′-((5-nitrofuran-2-yl)methylene)-1-naphthohydrazide]	16 µM	5.3 µM	> 100 µM	> 56 µM	–	–	–
O=C(N/N=C/c1cccc2ccccc12)c1ccccc1 [Compound 34, N′-(naphthalen-1-ylmethylene)benzohydrazide]	> 100 µM	> 83 µM	> 100 µM	> 56 µM	–	–	–
O=C(N/N=C/c1ccc([N+](=O)[O-])o1)c1ccc(O)cc1 [Nifuroxazide, reference compound]	8.1 µM	–	> 100 µM	–	weak to moderate GroEL/ES inhibitors	19 µM	> 56 µM
COc1ccc(C(=O)N/N=C/c2ccco2)cc1 [Compound 39, N′-(furan-2-ylmethylene)-4-methoxybenzohydrazide]	> 100 µM	> 83 µM	> 100 µM	> 56 µM	–	–	–
